From US11987588B2, “Modulators of the beta-3 adrenergic receptor useful for the treatment or prevention of heart failure and disorders related thereto” (Arena Pharmaceuticals, Inc., priority 2017, dated 2024)
pIC50: −log10 of the molar value.

Target: Beta-3 Adrenergic Receptor (Homo sapiens (Human), UniProt P13945)
Experiment: Homogeneous Time-Resolved Fluorescence (HTRF) cAMP antagonist assay, IC50 determination
Type: cell-based
Settings: CHO-K1 cells stably expressing recombinant receptor, isoproterenol at EC90
Method in brief: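 CHO-K1 cells stably expressing the recombinant receptor were preincubated with compound (10-point, 5-fold dilutions; top final typically 10 or 100 μM) in PBS with 1 mM IBMX, then stimulated with isoproterenol at its EC90 for 1 h at room temperature. cAMP was read by HTRF against an on-plate standard curve.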

Beta-3 Adrenergic Receptor, sequence (P13945 whole entry, species assumed): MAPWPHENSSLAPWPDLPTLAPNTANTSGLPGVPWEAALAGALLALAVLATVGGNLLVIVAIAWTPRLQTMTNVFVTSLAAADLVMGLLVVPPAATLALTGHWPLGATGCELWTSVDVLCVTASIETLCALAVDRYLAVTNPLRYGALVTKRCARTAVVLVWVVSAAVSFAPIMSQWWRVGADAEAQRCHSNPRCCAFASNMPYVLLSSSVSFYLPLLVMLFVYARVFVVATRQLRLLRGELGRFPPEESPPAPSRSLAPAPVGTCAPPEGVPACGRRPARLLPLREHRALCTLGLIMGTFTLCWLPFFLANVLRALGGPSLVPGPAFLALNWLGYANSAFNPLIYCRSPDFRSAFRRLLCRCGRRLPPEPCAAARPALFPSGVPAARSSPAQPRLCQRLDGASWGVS

SMILES	pIC50
CNS(=O)(=O)c1cccc(OC[C@@H](O)CN[C@H]2COC3(CCN(S(=O)(=O)c4cccc(-c5ccc(CN)cc5)c4)CC3)C2)c1 [Compound 289, 3-((S)-3-((R)-8-(4′-(aminomethyl)biphenyl-3-ylsulfonyl)-1-oxa-8-azaspiro[4.5]decan-3-ylamino)-2-hydroxypropoxy)-N-methylbenzenesulfonamide]	7.78
CNS(=O)(=O)c1cccc(OC[C@@H](O)CNC2COC3(CCN(S(=O)(=O)c4cccnc4N4CCOCC4)CC3)C2)c1 (stereo partly drawn) [Compound 442, 3-((2S)-2-hydroxy-3-(8-(2-morpholinopyridin-3-ylsulfonyl)-1-oxa-8-azaspiro[4.5]decan-3-ylamino)propoxy)-N-methylbenzenesulfonamide]	6.44
CNS(=O)(=O)c1cccc(OC[C@@H](O)CN[C@H]2COC3(CCN(S(=O)(=O)c4cnc5c(c4)C(=O)NC5)CC3)C2)c1 [Compound 478, 3-((S)-2-hydroxy-3-((R)-8-(5-oxo-6,7-dihydro-5H-pyrrolo[3,4-b]pyridin-3-ylsulfonyl)-1-oxa-8-azaspiro[4.5]decan-3-ylamino)propoxy)-N-methylbenzenesulfonamide]	6.69
CN(C)S(=O)(=O)c1cccc(OC[C@@H](O)CNC2COC3(CCN(S(=O)(=O)c4cccc(-c5ccc(N)nc5)c4)CC3)C2)c1 (stereo partly drawn) [Compound 275, 3-((2S)-3-(8-(3-(6-aminopyridin-3-yl)phenylsulfonyl)-1-oxa-8-azaspiro[4.5]decan-3-ylamino)-2-hydroxypropoxy)-N,N-dimethylbenzenesulfonamide]	7.67
CNS(=O)(=O)c1cccc(OC[C@@H](O)CN[C@H]2COC3(CCN(S(=O)(=O)c4cnc5c(c4)CCCC5)CC3)C2)c1 [Compound 479, 3-((S)-2-hydroxy-3-((R)-8-(5,6,7,8-tetrahydroquinolin-3-ylsulfonyl)-1-oxa-8-azaspiro[4.5]decan-3-ylamino)propoxy)-N-methylbenzenesulfonamide]	7.49
CCn1ccc(=O)c(S(=O)(=O)N2CCC3(CC2)C[C@@H](NC[C@H](O)COc2cccc(S(=O)(=O)NC)c2)CO3)c1 [Compound 588, 3-((S)-3-((R)-8-(1-ethyl-4-oxo-1,4-dihydropyridin-3-ylsulfonyl)-1-oxa-8-azaspiro[4.5]decan-3-ylamino)-2-hydroxypropoxy)-N-methylbenzenesulfonamide]	5.71
CNS(=O)(=O)c1cccc(OC[C@@H](O)CNC2COC3(CCN(S(=O)(=O)c4cccc(-c5cn(C)nc5C)c4)CC3)C2)c1 (stereo partly drawn) [Compound 68, 3-((2S)-3-(8-(3-(1,3-dimethyl-1H-pyrazol-4-yl)phenylsulfonyl)-1-oxa-8-azaspiro[4.5]decan-3-ylamino)-2-hydroxypropoxy)-N-methylbenzenesulfonamide]	7.43
CNS(=O)(=O)c1cccc(OC[C@@H](O)CNC2COC3(CCN(S(=O)(=O)c4ccccc4-c4ccc(CN)cc4)CC3)C2)c1 (stereo partly drawn) [Compound 381, 3-((2S)-3-(8-(4′-(aminomethyl)biphenyl-2-ylsulfonyl)-1-oxa-8-azaspiro[4.5]decan-3-ylamino)-2-hydroxypropoxy)-N-methylbenzenesulfonamide]	6.45
CNS(=O)(=O)c1cccc(OC[C@@H](O)CN[C@H]2COC3(CCN(S(=O)(=O)c4cncc(-c5ccc(CN)cc5)c4)CC3)C2)c1 [Compound 375]	7.60
CNS(=O)(=O)c1cccc(OC[C@@H](O)CNC2COC3(CCN(S(=O)(=O)c4ccc5c(Cl)cccc5c4)CC3)C2)c1 (stereo partly drawn) [Compound 223, 3-((2S)-3-(8-(5-chloronaphthalen-2-ylsulfonyl)-1-oxa-8-azaspiro[4.5]decan-3-ylamino)-2-hydroxypropoxy)-N-methylbenzenesulfonamide]	7.87
CC(O)CNS(=O)(=O)c1cccc(OC[C@@H](O)CNC2COC3(CCN(S(=O)(=O)c4ccc5ccccc5c4)CC3)C2)c1 (stereo partly drawn) [Compound 46, 3-((2S)-2-hydroxy-3-(8-(naphthalen-2-ylsulfonyl)-1-oxa-8-azaspiro[4.5]decan-3-ylamino)propoxy)-N-(2-hydroxypropyl)benzenesulfonamide]	7.27
CNS(=O)(=O)c1cccc(OC[C@@H](O)CNC2COC3(CCN(S(=O)(=O)c4cc(C)ccc4C#N)CC3)C2)c1 (stereo partly drawn) [Compound 180, 3-((2S)-3-(8-(2-cyano-5-methylphenylsulfonyl)-1-oxa-8-azaspiro[4.5]decan-3-ylamino)-2-hydroxypropoxy)-N-methylbenzenesulfonamide]	7.53
CNS(=O)(=O)c1cccc(OC[C@@H](O)CNC2COC3(CCN(S(=O)(=O)c4ccccc4C(F)(F)F)CC3)C2)c1 (stereo partly drawn) [Compound 33, 3-((2S)-2-hydroxy-3-(8-(2-(trifluoromethyl)phenylsulfonyl)-1-oxa-8-azaspiro[4.5]decan-3-ylamino)propoxy)-N-methylbenzenesulfonamide]	7.75
CNS(=O)(=O)c1cccc(OC[C@@H](O)CNC2COC3(CCN(S(=O)(=O)c4ccccc4Br)CC3)C2)c1 (stereo partly drawn) [Compound 54, 3-((2S)-3-(8-(2-bromophenylsulfonyl)-1-oxa-8-azaspiro[4.5]decan-3-ylamino)-2-hydroxypropoxy)-N-methylbenzenesulfonamide]	7.76
CNS(=O)(=O)c1cccc(OC[C@@H](O)CN[C@H]2COC3(CCN(S(=O)(=O)c4ccc5nccn5c4)CC3)C2)c1 [Compound 537, 3-((S)-2-hydroxy-3-((R)-8-(imidazo[1,2-a]pyridin-6-ylsulfonyl)-1-oxa-8-azaspiro[4.5]decan-3-ylamino)propoxy)-N-methylbenzenesulfonamide]	7.00
CNS(=O)(=O)c1cccc(OC[C@@H](O)CNC2COC3(CCN(S(=O)(=O)c4cccc(Cl)c4F)CC3)C2)c1 (stereo partly drawn) [Compound 139, 3-((2S)-3-(8-(3-chloro-2-fluorophenylsulfonyl)-1-oxa-8-azaspiro[4.5]decan-3-ylamino)-2-hydroxypropoxy)-N-methylbenzenesulfonamide]	7.99
CNS(=O)(=O)c1cccc(OC[C@@H](O)CN[C@H]2COC3(CCN(c4ncc(C(=O)OC)cn4)CC3)C2)c1 [Compound 581, methyl 2-((R)-3-((S)-2-hydroxy-3-(3-(N-methylsulfamoyl)phenoxy)propylamino)-1-oxa-8-azaspiro[4.5]decan-8-yl)pyrimidine-5-carboxylate]	6.10
CN1CCOc2ncc(S(=O)(=O)N3CCC4(CC3)C[C@@H](NC[C@H](O)COc3cccc(S(=O)(=O)NCC(F)F)c3)CO4)cc21 [Compound 461, N-(2,2-difluoroethyl)-3-((S)-2-hydroxy-3-((R)-8-(1-methyl-2,3-dihydro-1H-pyrido[2,3-b][1,4]oxazin-7-ylsulfonyl)-1-oxa-8-azaspiro[4.5]decan-3-ylamino)propoxy)benzenesulfonamide]	7.50
CNS(=O)(=O)c1cccc(OC[C@@H](O)CN[C@H]2COC3(CCN(S(=O)(=O)c4cccc(-c5ccc(N)nc5)c4)CC3)C2)c1 [Compound 287, 3-((S)-3-((R)-8-(3-(6-aminopyridin-3-yl)phenylsulfonyl)-1-oxa-8-azaspiro[4.5]decan-3-ylamino)-2-hydroxypropoxy)-N-methylbenzenesulfonamide]	7.66
CNS(=O)(=O)c1cccc(OC[C@@H](O)CNC2COC3(CCN(S(=O)(=O)c4ccc(-c5nn[nH]n5)cc4)CC3)C2)c1 (stereo partly drawn) [Compound 410, 3-((2S)-3-(8-(4-(2H-tetrazol-5-yl)phenylsulfonyl)-1-oxa-8-azaspiro[4.5]decan-3-ylamino)-2-hydroxypropoxy)-N-methylbenzenesulfonamide]	6.41
CNS(=O)(=O)c1cccc(OC[C@@H](O)CNC2COC3(CCN(S(=O)(=O)c4ccccc4S(C)(=O)=O)CC3)C2)c1 (stereo partly drawn) [Compound 43, 3-((2S)-2-hydroxy-3-(8-(2-(methylsulfonyl)phenylsulfonyl)-1-oxa-8-azaspiro[4.5]decan-3-ylamino)propoxy)-N-methylbenzenesulfonamide]	7.13
CNS(=O)(=O)c1cccc(OC[C@@H](O)CN[C@H]2COC3(CCN(c4ccncn4)CC3)C2)c1 [Compound 589, 3-((S)-2-hydroxy-3-((R)-8-(pyrimidin-4-yl)-1-oxa-8-azaspiro[4.5]decan-3-ylamino)propoxy)-N-methylbenzenesulfonamide]	5.84
CNS(=O)(=O)c1cccc(OC[C@@H](O)CNC2COC3(CCN(S(=O)(=O)c4ccc5[nH]c(=O)sc5c4)CC3)C2)c1 (stereo partly drawn) [Compound 58, 3-((2S)-2-hydroxy-3-(8-(2-oxo-2,3-dihydrobenzo[d]thiazol-6-ylsulfonyl)-1-oxa-8-azaspiro[4.5]decan-3-ylamino)propoxy)-N-methylbenzenesulfonamide]	7.37
CNS(=O)(=O)c1cccc(OC[C@@H](O)CNC2COC3(CCN(S(=O)(=O)c4cccc(-c5ccc(C(N)=O)cc5)c4)CC3)C2)c1 (stereo partly drawn) [Compound 368, 3′-(3-((S)-2-hydroxy-3-(3-(N-methylsulfamoyl)phenoxy)propylamino)-1-oxa-8-azaspiro[4.5]decan-8-ylsulfonyl)biphenyl-4-carboxamide]	7.45
CCN1CCOc2ccc(S(=O)(=O)N3CCC4(CC3)C[C@@H](NC[C@H](O)COc3cccc(S(=O)(=O)NC)c3)CO4)cc21 [Compound 351, 3-((S)-3-((R)-8-(4-ethyl-3,4-dihydro-2H-benzo[b][1,4]oxazin-6-ylsulfonyl)-1-oxa-8-azaspiro[4.5]decan-3-ylamino)-2-hydroxypropoxy)-N-methylbenzenesulfonamide]	7.41
CNS(=O)(=O)c1cccc(OC[C@@H](O)CNC2COC3(CCN(S(=O)(=O)c4ccccc4Cl)CC3)C2)c1 (stereo partly drawn) [Compound 35, 3-((2S)-3-(8-(2-chlorophenylsulfonyl)-1-oxa-8-azaspiro[4.5]decan-3-ylamino)-2-hydroxypropoxy)-N-methylbenzenesulfonamide]	7.72
CCn1cc(S(=O)(=O)N2CCC3(CC2)C[C@@H](NC[C@H](O)COc2cccc(S(=O)(=O)NC)c2)CO3)c(=O)c2ccccc21 [Compound 492, 3-((S)-3-((R)-8-(1-ethyl-4-oxo-1,4-dihydroquinolin-3-ylsulfonyl)-1-oxa-8-azaspiro[4.5]decan-3-ylamino)-2-hydroxypropoxy)-N-methylbenzenesulfonamide]	7.48
